Laboratory results taken from US20050118728A1, “Two-layer antibody capture system” (priority 2003, published 2005).
“Also recorded” adds a separate entry of the source.

Tested on: phospholipase C-γl
Test: Effect of tyrosine kinase inhibitor on ATP-dependent stimulation of immunocaptured phospholipase C-γl catalytic activity ([3H]PtdIns(4,5)P2 hydrolysis)
Type: biochemical
Details: 50 μM genistein, 20 minutes, 35° C.; enzyme captured from rat hippocampal formation P2 extract; in the presence of CaMKII, PKC and PKA inhibitors
Experimental: Anti-phospholipase C-γl antibodies were coated onto biotinylated anti-globulin immobilized on streptavidin at 200 ng of rabbit polyclonal antibody/100 μL per well. Each well was then incubated with 20 μg of rat hippocampal P2 extract overnight, and, subsequently, washed three times (5 minutes each) with room temperature PBS buffer. […]
Phospholipase C-γl enzyme activity was quantified essentially as described in Weeber et al. (Neurobiology of Learning and Memory 76 (2001) 151-182). […] 300 μL of the supernatant containing the reaction product ([^3H]Ins(1,4,5)P3) was removed and quantified by liquid scintillation spectroscopy. Immune-complex-dependent activity was calculated by subtracting background [^3H]Ins(1,4,5)P3 (release present in normal rabbit IgG antibody control samples) from the activity measured in wells containing anti-phospholipase C-γl antibody. Data were calculated as nanomoles Ins(1,4,5)P3 product formed per minute, or per mg protein, or per minute per mg protein present in the extract from which the enzyme was affinity purified.
We sought to determine whether the technique that we used for the affinity capture of phospholipase C-γl allowed for the detection of tyrosine kinase(s) that associate with the phospholipase C-γl. […] The wells were then rinsed with 1.25× phospholipase C assay buffer and the catalytic activity of the isozyme was determined. […]

## O=c1c(-c2ccc(O)cc2)coc2cc(O)cc(O)c12 [genistein]
  ATP-dependent stimulation of phospholipase C-γl catalytic activity: blocks; also recorded: completely inhibited
